Experimental data: US9617283B2, “Bicyclic heterocycle compounds and their uses in therapy” (ASTEX THERAPEUTICS LIMITED, priority 2012, dated 2017)
Where a name gives a salt, the structure may show the parent alone. Read-outs that look alike come from different tables or passages of the source.

Tests used:
[1] = molecular target: T1, BIR3 domain of human XIAP (residues 252-350) (Homo sapiens, UniProt P98170); assay: XIAP in vitro competitive displacement binding assay (fluorescence polarization); conditions: 1 h, percent inhibition (PI) at 0.04 μM; read-out: Xiap IC50 or PI μM
T1 construct: BIR3 domain of human XIAP (residues 252-350); His-tag (cleaved yes); made in house; host or cells: Escherichia coli

[2] = system: EVSA-T (human breast carcinoma); assay: Anti-proliferative activity, Alamar Blue assay, EVSA-T; assay type: cell-based
Description: Anti-Proliferative Activity
The method is based on the ability of viable cells to reduce resazurin to its fluorescent product resorufin. For each proliferation assay cells are plated onto 96 well plates and allowed to recover for 16 hours prior to the addition of inhibitor compounds (in 0.1% DMSO v/v) for a further 72 hours. […] The anti-proliferative activities of compounds of the invention can be determined by measuring the ability of the compounds to inhibit growth in 3 cancer cell lines: • EVSA-T (human breast carcinoma) DSMZ cat. no.

[3] = Homo sapiens, EVSA-T, 72 h, EVSA-T cell line, 72 hours, Alamar Blue; read-out: EVSA-T prolif
[4] = Homo sapiens, EVSA-T; read-out: EC50 in EVSA-T cell line assays

T1 sequence (P98170 252-350): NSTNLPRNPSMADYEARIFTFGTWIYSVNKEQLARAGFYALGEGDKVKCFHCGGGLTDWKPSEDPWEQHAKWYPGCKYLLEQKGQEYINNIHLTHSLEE

| Compound | inhibition at 0.04 µM [1] [%] | EC50 [2, 3] [nM] | EC50 [2, 4] [nM] | EC50 ([2]; EVSA-T cell line, 72 hours, Alamar Blue; dihydrochloride; read-out: EVSA-T prolif) [nM] | EC50 ([2]; Homo sapiens, EVSA-T, read-out: EC50 in EVSA-T cell line assays) [nM] |
| --- | --- | --- | --- | --- | --- |
| C[C@@H]1CN(CC(=O)N2CC(C)(C)c3ncc(Cc4ccc(F)cc4F)cc32)[C@@H](CN2C[C@H](C)OCC2=O)CN1 (single isomer, unassigned) [Example 23, (6R or 6S)-4-{[(2R,5R)-1-(2-{6-[(2,4-Difluorophenyl)methyl]-3,3-dimethyl-1H,2H,3H-pyrrolo[3,2-b]pyridin-1-yl}-2-oxoethyl)-5-methylpiperazin-2-yl]methyl}-6-methylmorpholin-3-one, dihydrochloride] | 64 | 2.8 | < 1000 | – | – |
| CCCC(F)(F)c1cc2c(cn1)C(C)(C)CN2C(=O)CN1C[C@@H](C)NC[C@@H]1CN1CC(C)=C(C)C1=O [Example 28, 1-{[(2R,5R)-1-{2-[6-(1,1-Difluorobutyl)-3,3-dimethyl-1H,2H,3H-pyrrolo[3,2-c]pyridin-1-yl]-2-oxoethyl}-5-methylpiperazin-2-yl]methyl}-3,4-dimethyl-2,5-dihydro-1H-pyrrol-2-one, dihydrochloride] | 67 | 10 | < 1000 | – | – |
| C[C@H]1CC(=O)N(C[C@H]2CN[C@H](C)CN2CC(=O)N2CC(C)(C)c3ncc(Cc4ccc(F)cc4F)cc32)C1 [Example 73, (4S)-1-{[(2R,5R)-1-(2-{6-[(2,4-Difluorophenyl)methyl]-3,3-dimethyl-1H,2H,3H-pyrrolo[3,2-b]pyridin-1-yl}-2-oxoethyl)-5-methylpiperazin-2-yl]methyl}-4-methylpyrrolidin-2-one dihydrochloride] | 64 | 2.5 | < 1000 | – | – |
| C[C@@H]1CC(=O)N(C[C@H]2CN[C@H](C)CN2CC(=O)N2CC(C)(C)c3cnc(Cc4ccc(F)cc4F)cc32)C1 [Example 71, (4R)-1-{[(2R,5R)-1-(2-{6-[(2,4-Difluorophenyl)methyl]-3,3-dimethyl-1H,2H,3H-pyrrolo[3,2-c]pyridin-1-yl}-2-oxoethyl)-5-methylpiperazin-2-yl]methyl}-4-methylpyrrolidin-2-one dihydrochloride] | 64 | 2.5 | < 1000 | – | – |
| C[C@@H]1CN(CC(=O)N2CC(C)(C)c3nnc(Cc4ccc(F)cc4F)cc32)[C@@H](CN2Cc3cc(O)ccc3C2=O)CN1 [Example 108, 2-{[(2R,5R)-1-(2-{3-[(2,4-Difluorophenyl)methyl]-7,7-dimethyl-5H,6H,7H-pyrrolo[3,2-c]pyridazin-5-yl}-2-oxoethyl)-5-methylpiperazin-2-yl]methyl}-5-hydroxy-2,3-dihydro-1H-isoindol-1-one dihydrochloride] | 88 | 11 | < 1000 | – | – |
| CCC1CN(C[C@H]2CN[C@H](C)CN2CC(=O)N2CC(C)(C)c3ncc([C@@H](O)c4ccc(F)cc4)cc32)C(=O)CO1 (single isomer, unassigned) [Example 110, (R or S)-6-ethyl-4-{[(2R,5R)-1-(2-{6-[(S)-(4-Fluorophenyl)(hydroxy)methyl]-3,3-dimethyl-1H,2H,3H-pyrrolo[3,2-b]pyridin-1-yl}-2-oxoethyl)-5-methylpiperazin-2-yl]methyl}morpholin-3-one dihydrochloride] | 48 | – | – | 290 | < 1000 |
| CCCC(F)(F)c1cc2c(cn1)C(C)(C)CN2C(=O)CN1C[C@@H](C)NC[C@@H]1CN1C[C@H](C)OCC1=O [Example 26, (6S)-4-{[(2R,5R)-1-{2-[6-(1,1-Difluorobutyl)-3,3-dimethyl-1H,2H,3H-pyrrolo[3,2-c]pyridin-1-yl]-2-oxoethyl}-5-methylpiperazin-2-yl]methyl}-6-methylmorpholin-3-one, dihydrochloride] | 60 | 27 | < 1000 | – | – |
| CCCC(F)(F)c1cc2c(nn1)C(C)(C)CN2C(=O)CN1C[C@@H](C)NC[C@@H]1CN1Cc2ccccc2C1=O [Example 59, 2-{[(2R,5R)-1-{2-[3-(1,1-Difluorobutyl)-7,7-dimethyl-5H,6H,7H-pyrrolo[3,2-c]pyridazin-5-yl]-2-oxoethyl}-5-methylpiperazin-2-yl]methyl}-2,3-dihydro-1H-isoindol-1-one dihydrochloride] | 68 | 1.6 | < 1000 | – | – |
| C[C@@H]1CN(CC(=O)N2CC(C)(C)c3cnc(Cc4ccc(F)cc4F)cc32)[C@@H](CN2C[C@@H](C)N(C)CC2=O)CN1 [Example 85, (5R)-1-{[(2R,5R)-1-(2-{6-[(2,4-Difluorophenyl)methyl]-3,3-dimethyl-1H,2H,3H-pyrrolo[3,2-c]pyridin-1-yl}-2-oxoethyl)-5-methylpiperazin-2-yl]methyl}-4,5-dimethylpiperazin-2-one dihydrochloride] | 45 | 4.5 | < 1000 | – | – |
| C[C@@H]1CN(CC(=O)N2CC(C)(C)c3ncc(Cc4ccc(F)cc4F)cc32)[C@@H](CN2C[C@H](C)N(C)CC2=O)CN1 [Example 98, (5S)-1-{[(2R,5R)-1-(2-{6-[(2,4-Difluorophenyl)methyl]-3,3-dimethyl-1H,2H,3H-pyrrolo[3,2-b]pyridin-1-yl}-2-oxoethyl)-5-methylpiperazin-2-yl]methyl}-4,5-dimethylpiperazin-2-one dihydrochloride] | 39 | 3.5 | < 1000 | – | – |
| CC1=C(C)C(=O)N(C[C@H]2CN[C@H](C)CN2CC(=O)N2CC(C)(C)c3ncc(Cc4ccc(F)cc4F)cc32)C1 [Example 24, 1-{[(2R,5R)-1-(2-{6-[(2,4-Difluorophenyl)methyl]-3,3-dimethyl-1H,2H,3H-pyrrolo[3,2-b]pyridin-1-yl}-2-oxoethyl)-5-methylpiperazin-2-yl]methyl}-3,4-dimethyl-2,5-dihydro-1H-pyrrol-2-one, dihydrochloride] | 72 | 1.7 | < 1000 | – | – |
| CCCC(F)(F)c1cc2c(cn1)C(C)(C)CN2C(=O)CN1C[C@@H](C)NC[C@@H]1CN1Cc2ccncc2C1=O [Example 78, 2-{[(2R,5R)-1-{2-[6-(1,1-Difluorobutyl)-3,3-dimethyl-1H,2H,3H-pyrrolo[3,2-c]pyridin-1-yl]-2-oxoethyl}-5-methylpiperazin-2-yl]methyl}-1H,2H,3H-pyrrolo[3,4-c]pyridin-3-one dihydrochloride] | 64 | 3.4 | < 1000 | – | – |
| C[C@@H]1CN(CC(=O)N2CC(C)(C)c3ncc(Cc4ccc(F)cc4)cc32)[C@@H](CN2CC3(COC3)CC2=O)CN1 [Example 12, 6-{[(2R,5R)-1-(2-{6-[(4-Fluorophenyl)methyl]-3,3-dimethyl-1H,2H,3H-pyrrolo[3,2-b]pyridin-1-yl}-2-oxoethyl)-5-methylpiperazin-2-yl]methyl}-2-oxa-6-azaspiro[3.4]octan-7-one L-lactate] | 42 | 7.1 | < 1000 | – | – |
| CC1=C(C)C(=O)N(C[C@H]2CN[C@H](C)CN2CC(=O)N2CC(C)(C)c3nnc(Cc4ccc(F)cc4F)cc32)C1 [Example 50, 1-{[(2R,5R)-1-(2-{3-[(2,4-Difluorophenyl)methyl]-7,7-dimethyl-5H,6H,7H-pyrrolo[3,2-c]pyridazin-5-yl}-2-oxoethyl)-5-methylpiperazin-2-yl]methyl}-3,4-dimethyl-2,5-dihydro-1H-pyrrol-2-one L-lactate] | 66 | 1.2 | < 1000 | – | – |
